Experimental data as given in the NIST ThermoML archive (doi:10.1016/j.jct.2016.12.023).

Experiment: mn = molality of the nth substance listed, in mol/kg
Settings: 298.15 K, 101.33 kPa, Liquid, Vibrating tube method

OC[C@H]1O[C@@H]2O[C@H]3[C@H](O)[C@@H](O)[C@@H](O[C@H]4[C@H](O)[C@@H](O)[C@@H](O[C@H]5[C@H](O)[C@@H](O)[C@@H](O[C@H]6[C@H](O)[C@@H](O)[C@@H](O[C@H]7[C@H](O)[C@@H](O)[C@@H](O[C@H]1[C@H](O)[C@H]2O)O[C@@H]7CO)O[C@@H]6CO)O[C@@H]5CO)O[C@@H]4CO)O[C@@H]3CO [α-cyclodextrin] + O
Settings	mass density [kg/m3]
m1 = 0.00975	1000.6
m1 = 0.01763	1003.4
m1 = 0.02931	1007.6
m1 = 0.03389	1009.2
m1 = 0.04348	1012.5
m1 = 0.05233	1015.6
m1 = 0.06207	1018.9
m1 = 0.07117	1022
m1 = 0.0783	1024.4
m1 = 0.09004	1028.3
m1 = 0.09733	1031
m1 = 0.09764	1030.7
m1 = 0.09915	1031.6
m1 = 0.09944	1031.7
m1 = 0.1001	1031.6
